According to the Deep4Chem optical property database:

Assay: photoluminescence quantum yield (fraction); solvent given as SMILES

CCCCCCOc1ccc(C#Cc2ccc(-c3ccc(-c4ccc(C#Cc5ccc(OCCCCCC)c(OCCCCCC)c5)s4)c4nsnc34)s2)cc1OCCCCCC
photoluminescence quantum yield (in C1CCCCC1): 0.54 | photoluminescence quantum yield (in CCOC(C)=O): 0.46 | photoluminescence quantum yield (in CN(C)C=O): 0.24 | photoluminescence quantum yield (in COc1ccccc1): 0.48 | photoluminescence quantum yield (in Cc1ccccc1): 0.55 | photoluminescence quantum yield (in ClC(Cl)Cl): 0.43 | photoluminescence quantum yield (in ClCCCl): 0.34 | photoluminescence quantum yield (in ClCCl): 0.35

C(=C\c1ccc(-c2nc3c4cccnc4c4ncccc4c3[nH]2)cc1)/c1ccncc1
photoluminescence quantum yield (in C1CCOC1): 0.54 | photoluminescence quantum yield (in CC#N): 0.32 | photoluminescence quantum yield (in CO): 0.19 | photoluminescence quantum yield (in ClCCl): 0.48

CCn1c2c(-c3ccc(-c4cccs4)s3)cc(C(C)(C)C)cc2c2cc(C(C)(C)C)cc(-c3ccc(-c4cccs4)s3)c21
photoluminescence quantum yield (in ClCCl): 0.106

c1ccc(-n2nc(-c3ccc(-c4ccc5c(c4)C(c4ccccc4)(c4ccccc4)c4ccccc4-5)cc3)nc2-c2ccccn2)cc1
photoluminescence quantum yield (in ClCCl): 0.158

CCC12C(=C3C(=C4c5ccc(-c6ccc(C(C)=O)cc6)cc5S(=O)(=O)C41CC)C(F)(F)C(F)(F)C3(F)F)c1ccc(-c3ccc(C(C)=O)cc3)cc1S2(=O)=O (configuration not stated)
photoluminescence quantum yield (in C1COCCO1): 0.87

CC(C)(C)c1ccc2c3c(c4ccc(C(C)(C)C)cc4c2c1)=[N+]1C(=C(c2ccccc2)c2c(Br)c4c5ccc(C(C)(C)C)cc5c5cc(C(C)(C)C)ccc5c4n2[B-]1(F)F)C=3Br
photoluminescence quantum yield (in C1CCCCC1): 0.03 | photoluminescence quantum yield (in C1CCOC1): 0.02 | photoluminescence quantum yield (in CC#N): 0.02 | photoluminescence quantum yield (in Cc1ccccc1): 0.03 | photoluminescence quantum yield (in ClCCl): 0.03

COC(=O)C12N=N[C@](C(=O)OC)(C3C4CCC(C4)C31)[C@@]1(C)C[C@@H]21 (some centres not stated)
photoluminescence quantum yield (in CC#N): 0.043

CCCc1ccc(C#Cc2ccc3nc4ccc(C#Cc5ccc(CCC)cc5)cn4c(=O)c3c2)cc1
photoluminescence quantum yield (in ClCCl): 0.45

COC(=O)c1ccc(O)c(-c2[nH]c(=O)n3c2-c2ccccc2C3=O)c1
photoluminescence quantum yield (in CC#N): 0.46 | photoluminescence quantum yield (in CO): 0.35 | photoluminescence quantum yield (in ClCCl): 0.86

O=C1C2=C(O[B-](F)(F)[n+]3c2ccc2ccccc23)c2cccc3c(N4CCOCC4)ccc1c23
photoluminescence quantum yield (in C1CCOC1): 0.53 | photoluminescence quantum yield (in CC#N): 0.47 | photoluminescence quantum yield (in CCO): 0.45 | photoluminescence quantum yield (in CO): 0.44 | photoluminescence quantum yield (in ClCCl): 0.5

CCCN(c1ccccc1)c1ccc2c(c1)C(CC)(CC)c1cc(/C=C/c3ccc(/C=C(\C#N)C(=O)O)s3)ccc1-2
photoluminescence quantum yield (in C1CCOC1): 0.355 | photoluminescence quantum yield (in C1COCCO1): 0.862 | photoluminescence quantum yield (in CC#N): 0.229 | photoluminescence quantum yield (in CC(C)=O): 0.486 | photoluminescence quantum yield (in CCOC(C)=O): 0.584 | photoluminescence quantum yield (in CN(C)C=O): 0.894 | photoluminescence quantum yield (in CS(C)=O): 0.611 | photoluminescence quantum yield (in ClCCl): 0.624

N#Cc1c2oc3ccccc3oc2c(C#N)c2oc3ccccc3oc12
photoluminescence quantum yield (in ClC(Cl)Cl): 0.78

COc1nnc(Cl)nn1
photoluminescence quantum yield (in ClCCl): 0.38 | photoluminescence quantum yield (in OCC(F)(F)F): 0.26

Cc1cc(C(F)(F)F)nc2c1ccc1nc(-c3ccc(Cl)cc3)cn12
photoluminescence quantum yield (in CC#N): 0.84 | photoluminescence quantum yield (in CCCCOC(C)=O): 0.76 | photoluminescence quantum yield (in CCOC(C)=O): 0.9 | photoluminescence quantum yield (in CO): 0.78 | photoluminescence quantum yield (in ClC(Cl)Cl): 0.64 | photoluminescence quantum yield (in c1ccccc1): 0.88

COc1ccc(C2=C(c3ccc(OC)cc3)C(C)(C)c3sccc32)cc1
photoluminescence quantum yield (in C1CCCCC1): 0.02

CN(C)C1=Nc2cccc3cccc1c23
photoluminescence quantum yield (in CC#N): 0.0066

N#Cc1nc2c(nc1C#N)C1c3ccc(N(c4ccccc4)c4ccccc4)cc3C2c2ccc(N(c3ccccc3)c3ccccc3)cc21
photoluminescence quantum yield (in C1CCCCC1): 0.55 | photoluminescence quantum yield (in CC#N): 0.001 | photoluminescence quantum yield (in Cc1ccccc1): 0.25 | photoluminescence quantum yield (in ClCCl): 0.002

COc1ccc2c(c1)CCC1=C(C#Cc3ccc(Cl)cc3)O[B-](F)(F)[O+]=C12
photoluminescence quantum yield (in ClCCl): 0.72

C(=C\c1ccc(-c2cccc3ccccc23)s1)/c1cccs1
photoluminescence quantum yield (in ClCCl): 0.25

CN(C)c1ccc(-c2nc3cccnc3[nH]2)cc1
photoluminescence quantum yield (in C1CCCCC1): 0.72 | photoluminescence quantum yield (in CC#N): 0.76

C[Si]1(C)O[Si](C)(C)c2cc3c(-c4ccccc4)c4cc(Cl)ccc4nc3cc21
photoluminescence quantum yield (in ClCCl): 0.34

CCOC(=O)c1sc2nc(-c3ccc(OC)cc3)c(C)c(C#N)c2c1N
photoluminescence quantum yield (in c1ccccc1): 0.064

F[B-]1(F)n2c(Cl)c(Cl)c(Br)c2C(Oc2ccccc2)=C2C(Br)=C(Cl)C(Cl)=[N+]21
photoluminescence quantum yield (in ClCCl): 0.05

c1ccc(-c2cn3ccc[n+]3[n-]2)cc1
photoluminescence quantum yield (in ClCCl): 0.03

c1cc2c3c(cccc3c1)NC(c1ccc3ccc4cccc5ccc1c3c45)N2
photoluminescence quantum yield (in CC#N): 0.24 | photoluminescence quantum yield (in CO): 0.05 | photoluminescence quantum yield (in CS(C)=O): 0.08 | photoluminescence quantum yield (in Cc1ccccc1): 0.51

COc1ccc(C#Cc2ccc3nc4ccc(C#Cc5ccc(OC)cc5)cn4c(=O)c3c2)cc1
photoluminescence quantum yield (in ClCCl): 0.52

C1=[N+](c2ccccc2)[B-]2(Oc3c1ccc1c4c(ccc31)C=[N+](c1ccccc1)[B-]1(O4)c3ccccc3Oc3ccccc31)c1ccccc1Oc1ccccc12
photoluminescence quantum yield (in Cc1ccccc1): 0.77 | photoluminescence quantum yield (in ClCCl): 0.81

O=C(O)CC[N+]1=c2cc3c(cc2CCC1)=Cc1c(c2cc4c5c(c2oc1=O)CCCN5CCC4)O3
photoluminescence quantum yield (in CC#N): 0.025 | photoluminescence quantum yield (in CO): 0.013 | photoluminescence quantum yield (in ClCCl): 0.163 | photoluminescence quantum yield (in O): 0.003

Cc1ccc(-[c+]2c3ccccc3oc3ccccc32)cc1
photoluminescence quantum yield (in CC#N): 0.014

Cc1ccc(C2=C3C=CC(C#Cc4ccccc4)=[N+]3[B-](F)(F)n3c(Cl)ccc32)cc1
photoluminescence quantum yield (in C1CCCCC1): 1 | photoluminescence quantum yield (in C1CCOC1): 0.84 | photoluminescence quantum yield (in C1COCCO1): 0.97 | photoluminescence quantum yield (in CCOC(C)=O): 0.83 | photoluminescence quantum yield (in CO): 0.98 | photoluminescence quantum yield (in Cc1ccccc1): 0.91 | photoluminescence quantum yield (in ClC(Cl)Cl): 0.95

CC(C)[Si](C#Cc1c2cc3ccccc3cc2c(C#C[Si](C(C)C)(C(C)C)C(C)C)c2nc3c(nc12)Cc1ccccc1-3)(C(C)C)C(C)C
photoluminescence quantum yield (in CCCCCC): 0.15

CCCC(=O)c1c(OCOC)c(OCOC)c(C(=O)CCC)c2c1OCO2
photoluminescence quantum yield (in CC#N): 0.41

Cc1ccc(-c2ccc(/C=C/c3cccs3)cn2)nc1
photoluminescence quantum yield (in CC#N): 0.042

COc1ccc(C2=C(c3ccc(OC)cc3)C(C)(C)c3cc(-c4ccccc4)ccc32)cc1
photoluminescence quantum yield (in C1CCCCC1): 0.06

Nc1ccc2nc(-c3ccccc3)c(=O)oc2c1
photoluminescence quantum yield (in c1ccccc1): 0.697

CC[N+]1(CC)CN2C(=N1)C(C(=O)O)=Cc1cc(OC)ccc12
photoluminescence quantum yield (in O): 0.509

Cc1ccc(NC(=O)c2ccc(N(C)C)cc2)cc1
photoluminescence quantum yield (in C1CCCCC1): 0.0015 | photoluminescence quantum yield (in C1CCOC1): 0.0028 | photoluminescence quantum yield (in CC#N): 0.0027 | photoluminescence quantum yield (in CCOCC): 0.0034

Cc1ccc(-c2cnc3ccc4ccccc4n23)cc1
photoluminescence quantum yield (in ClCCl): 0.42

COc1cccc2c1oc(=O)c1c(=O)oc3cc(O)ccc3c12
photoluminescence quantum yield (in ClCCl): 0.004

COc1ccc(/C=C/c2ccc(-c3ccc(C)cn3)nc2)cc1
photoluminescence quantum yield (in CC#N): 0.28

CCN(CC)c1ccc2cc3c([o+]c2c1)/C(=C/Nc1ccccc1)CCC3
photoluminescence quantum yield (in CCO): 0.18 | photoluminescence quantum yield (in ClC(Cl)Cl): 0.22 | photoluminescence quantum yield (in ClCCl): 0.31

CN(C)c1ccc(C(=Cc2ccc(C=O)cc2)c2ccc(N(C)C)cc2)cc1
photoluminescence quantum yield (in C1CCOC1): 0.059

CC(C)[Si](C#Cc1ccc(C#Cc2c3cc4ccccc4cc3c(C#C[Si](C(C)C)(C(C)C)C(C)C)c3cc4ccccc4cc23)cc1)(C(C)C)C(C)C
photoluminescence quantum yield (in ClCCl): 0.12

CC(C)(C)c1ccc2c(c1)[nH]c1c3[nH]c4cc(C(C)(C)C)ccc4c3c3nsnc3c21
photoluminescence quantum yield (in CN(C)C=O): 0.09 | photoluminescence quantum yield (in Cc1ccccc1): 0.11 | photoluminescence quantum yield (in ClCCl): 0.12

Nc1ccc2c3c(cccc13)C(=O)c1ccccc1-2
photoluminescence quantum yield (in CC#N): 0.1 | photoluminescence quantum yield (in CC(C)=O): 0.11 | photoluminescence quantum yield (in CC(C)O): 0.03 | photoluminescence quantum yield (in CCCCOCCCC): 0.34 | photoluminescence quantum yield (in CCOC(C)=O): 0.21 | photoluminescence quantum yield (in CCOCC): 0.26 | photoluminescence quantum yield (in CO): 0.02 | photoluminescence quantum yield (in Cc1ccccc1): 0.3 | photoluminescence quantum yield (in Clc1ccccc1): 0.25 | photoluminescence quantum yield (in N#Cc1ccccc1): 0.14 | photoluminescence quantum yield (in O=C1CCCCC1): 0.15

CCN(CC)c1ccc2cc(-c3cn4cc5ccccc5cc4n3)c(=O)oc2c1
photoluminescence quantum yield (in ClC(Cl)Cl): 0.92

COC(=O)C1=C(C(=O)OC)C2(c3ccccc3-c3c(C(=O)OC)cccc32)[C@@H](c2ccc(Cl)cc2)C=C2c3cc(OC)c(OC)cc3CCN21 (some centres not stated)
photoluminescence quantum yield (in ClCCl): 0.00593

F[B-]1(F)n2c(c3ccccc3c2-c2ccccc2)C(c2ccccc2)=C2c3ccccc3C(c3ccccc3)=[N+]21
photoluminescence quantum yield (in ClCCl): 0.93

CC1=C(c2ccc(N(C)C)cc2)C(C)=[N+]2C1=C(c1c(-c3ccccn3)nc3ccccn13)c1c(C)cc(C)n1[B-]2(F)F
photoluminescence quantum yield (in ClCCl): 0.0041

COc1ccc(C)cc1C1=C2C=CC(=[N+](C)C)C=C2[Si](C)(C)c2cc(N(C)C)ccc21
photoluminescence quantum yield (in O): 0.28

O=Cc1ccc(C#CC(C#Cc2ccc(C=O)o2)=Cc2ccc(C=C(C#Cc3ccc(C=O)o3)C#Cc3ccc(C=O)o3)s2)o1
photoluminescence quantum yield (in ClC(Cl)Cl): 0.01

CN(C)c1ccc(/C=C/c2cnc(-c3ccncc3)o2)cc1
photoluminescence quantum yield (in ClCCl): 0.65

Cc1cc2ccccc2cc1C
photoluminescence quantum yield (in C1CCCCC1): 0.56

CC1=CC(C)=[N+]2C1=C(c1ccccc1)c1c(C)cc(/C=C/c3ccc(N(C)C)cc3)n1[B-]2(F)F
photoluminescence quantum yield (in CCOCC): 0.83

C(=C\c1ccc2ccccc2c1)/c1ccc(N(c2ccccc2)c2ccccc2)cc1
photoluminescence quantum yield (in CC#N): 0.42 | photoluminescence quantum yield (in CCCCCC): 0.61

CCCCn1c(-c2ccc(-c3nnc(-c4cccs4)o3)cc2)nc(-c2ccccc2)c1-c1ccccc1
photoluminescence quantum yield (in ClCCl): 0.33

CC(C)(C)c1ccc2c(c1)c1cc(C(C)(C)C)ccc1n2-c1cc(C(=O)c2ccccn2)cc(-n2c3ccc(C(C)(C)C)cc3c3cc(C(C)(C)C)ccc32)c1
photoluminescence quantum yield (in Cc1ccccc1): 0.072 | photoluminescence quantum yield (in c1cc(-c2cccc(-n3c4ccccc4c4ccccc43)c2)cc(-n2c3ccccc3c3ccccc32)c1): 0.96

CCOC(=O)c1ccc(C2=CC3=c4cc(-c5ccc(C(=O)OCC)cc5)c5nc(C(F)(F)C(F)(F)C(F)(F)F)nc6c(-c7ccc(C(=O)OCC)cc7)cc(c4c65)C4=CC(c5ccc(C(=O)OCC)cc5)=C5N=C(C(F)(F)C(F)(F)C(F)(F)F)N=C2C5C43)cc1 (configuration not stated)
photoluminescence quantum yield (in C1CCOC1): 0.79
